Laboratory results: patent publication US11072583B2, “Indole (sulfomyl) n-hydroxy benzamide derivatives as selective HDAC inhibitors” (COUNCIL OF SCIENTIFIC & INDUSTRIAL RESEARCH, priority 2017, dated 2021)
pIC50: −log10 of the molar value. Where two headings read alike, the source gives them in different places.

Legend:
Format in all cases: cell-based, human
[1] = tested on: HeLa (Cervical cancer cell line); assay: Anti-proliferative assay (Cell Titer-Glo), HeLa
[2] = tested on: MCF-7 (Breast cancer cell line); assay: Anti-proliferative assay (Cell Titer-Glo), MCF-7
[3] = tested on: DU-145 (Prostate cancer cell line); assay: Anti-proliferative assay (Cell Titer-Glo), DU-145
Protocol: Cell culture & Reagents: All cell lines, used for the anti-proliferative screen, were obtained from American Type Culture Collection (ATCC). HeLa (Cervical cancer cell line), MCF-7 (Breast cancer cell line) and DU-145 (Prostate cancer cell line) were cultured in Dulbecco's modified Eagle's medium (DMEM, GIBCO), containing 10% fetal bovine serum (FBS; Life Technologies), penicillin and streptomycin (10,000 U/mL), at 37° C. and in 5% CO2. Cell Titer-Glo® Luminescent Cell Viability Assay kit (Cat No. G7573) was purchased from Promega to determine the number of viable cells in culture based on quantitation of the ATP present, which signals the presence of metabolically active cells.
Anti-Proliferative assay: For anti-proliferative screening, 2500 cells per well (For HeLa and DU-145 cell lines) and 5000 cells per well (for MCF-7 cell line) numbers of cells were seeded in a white opaque plate and incubated for 24 Hrs in 5% CO2 incubator at 37° C. After 24 Hrs, compound dilutions were prepared as per the required concentrations in cell culture medium (DMEM) and diluted compounds were added and incubated with cells for 72 Hrs at 37° C. in 5% CO2 incubator in the same 96 well-plate. After 72 Hrs, Cell Titer-Glo® reagent vial was reconstituted with 100 mL of Cell Titer Glo buffer and 100 μL of prepared reagent was added to each well. After incubating at room temperature for 30 minutes, luminescence was captured using luminescence plate reader (EnVision® Multilabel Plate Reader from Perkin Elmer). Generated data was exported to the excel file and data was analyzed using Graph Pad Prism to calculate IC50 value of the unknown inhibitor.
Compounds were screened against different cancer cell lines [HeLa, DU-145, MCF-7 and SKOV3] for anti-proliferative activity using luminescence based cell proliferation assay using Promega Glo kit are shown in FIG. 3.

[4] = tested on: SKOV3 (Ovarian cancer cells); assay: Anti-proliferative assay, SKOV3
[5] = Table 1, reference compounds, read-out: IC50 DU-145 cells

pIC50 ([1]; Homo sapiens, HeLa, Table 1, reference compounds, read-out: IC50 HeLa cells)	pIC50 ([1]; Homo sapiens, HeLa, Table 2, reference compounds section, read-out: HeLa IC50)	pIC50 ([2]; Homo sapiens, MCF7, Table 1, reference compounds, read-out: IC50 MCF-7 cells)	pIC50 ([2]; Homo sapiens, MCF7, Table 2, reference compounds section, read-out: MCF-7 IC50)	pIC50 ([3]; Homo sapiens, DU-145, Table 1, reference compounds, read-out: IC50 DU-145 cells)	pIC50 ([3]; Homo sapiens, DU-145, Table 2, reference compounds section, read-out: DU-145 IC50)	pIC50 ([4]; Homo sapiens, SK-OV-3, Table 1, reference compounds, read-out: IC50 SKOV3 cells)	pIC50 ([4]; Homo sapiens, SK-OV-3, Table 2, reference compounds section, read-out: SKOV3 IC50)	SMILES	pIC50 [3, 5]	pIC50 ([1]; Table 1, reference compounds, read-out: IC50 HeLa cells)	pIC50 ([2]; Table 1, reference compounds, read-out: IC50 MCF-7 cells)	pIC50 ([4]; Table 1, reference compounds, read-out: IC50 SKOV3 cells)
6.21	6.41	6.39	6.60	6.01	6.42	6.53	6.53	COc1ccc(C[C@H](N)C(=O)N[C@H]2[C@@H](O)[C@H](n3cnc4c(N(C)C)ncnc43)O[C@@H]2CO)cc1 [Puromycin]	–	–	–	–
–	–	–	–	–	–	–	–	O=C(CCCCCCC(=O)Nc1ccccc1)NO [SAHA]	6.10	–	–	–
–	–	–	–	–	–	–	–	CC(/C=C/C(=O)NO)=C\[C@@H](C)C(=O)c1ccc(N(C)C)cc1 [TSA, Trichostatin A]	6.27	6.91	6.82	6.62
